Measured values from US9464097B2, “Gold complexes” (UNIVERSITY COURT OF THE UNIVERSITY OF ST. ANDREWS, priority 2010, dated 2016).

Columns and labels:
[1] = proton borne by the heteroatom, literature value; cited from earlier work
[2] = test system: LNCaP (prostate carcinoma) cell line; assay: Cytotoxicity assay (CCK-8 viability), LNCaP; type: cell-based, human; conditions: 3 days incubation
Experimental: (§1) Cytotoxicity assay: The compound/complex was dissolved in DMSO and diluted in DMSO. The final dilution was in the respective culture medium and the final concentration of DMSO was always below 0.01%. Cells were pipetted into microtitre plates (NUNC) at 4000 cells/well and incubated at 37° C. in 5% CO2 in air for 24 hr. Varying concentrations of the compounds/complexes were applied to the cells in 10 μl volumes. The plates were incubated for 3 days at 37° C. 5% CO2 in air. The viability of the cells was measured using the Dojindo kit CCK-8 (Cell counting Kit—8, Dojindo technologies USA, CK04-11) method after incubation for 3 hr in the absence of light. The plates were read on an ELISA plate reader at a wavelength of 450 nm.

[3] = test system: human urothelial cell line (SV-HUC-1); assay: Cytotoxicity assay (CCK-8 viability), SV-HUC-1; type: cell-based; conditions: SV-HUC-1, 3 days incubation
Experimental: as §1

human cancer cell lines = assay: Cytotoxicity towards human cancer cell lines, overall comparison with cisplatin; type: cell-based; conditions: cytotoxicity across the tested cell lines
Experimental: as §1

Compound: Cc1ccc(S)cc1 [p-thiocresol (14a), p-thiocresol]
- pKa [1]: 10.3

Compound: N.N.[Cl][Pt][Cl] [cisplatin]
- IC50 [2]: 18 µM
- IC50 [3]: 25 µM

Compound: Cc1ccc(O)cc1 [p-cresol (14b), p-cresol]
- pKa [1]: 18.9

Compound: CC(C)c1cccc(C(C)C)c1N1C=CN(c2c(C(C)C)cccc2C(C)C)[CH]1[Au][OH] [complex 2, [Au(OH)(IPr)]]
- Overall activity compared with cisplatin (human cancer cell lines): superior to that displayed by cisplatin
